Measurements as given in ChEMBL document CHEMBL1201862, “PubChem BioAssay data set” (2004).
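Five concentrations, 48 hours, 96-well plates. The concentration for 50% growth inhibition is given as GI50.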 Calls of active or inactive are those of the source. No stated cut-off is given here; in the data, active = GI50 up to about 1.1 µM and inactive = higher.

Assays:
Test in all cases: NCI anticancer screen, dose series, 48 h
SW-620 = system: SW-620
CAKI-1 = system: CAKI-1
BT-549 = system: BT-549
RPMI-8226 = system: RPMI-8226
LOX IMVI = system: LOX IMVI
HOP-92 = system: HOP-92
SK-MEL-5 = system: SK-MEL-5
ACHN = system: ACHN
NCI/ADR-RES = system: NCI/ADR-RES
MDA-MB-231 = system: MDA-MB-231
SNB-19 = system: SNB-19
SK-MEL-2 = system: SK-MEL-2
PC-3 = system: PC-3
HL-60 = system: HL-60
Malme-3M = system: Malme-3M
SF-268 = system: SF-268
K562 = system: K562
Hs-578T = system: Hs-578T
SN12C = system: SN12C
SF-539 = system: SF-539

Measured: GI50

NCCNc1ncnc2ccc(Cl)cc12
inactive: SW-620 72.3 µM | CAKI-1 > 100 µM | BT-549 > 100 µM | RPMI-8226 96.2 µM | LOX IMVI > 100 µM | HOP-92 93.5 µM | SK-MEL-5 > 100 µM | ACHN 66.4 µM | NCI/ADR-RES > 100 µM | MDA-MB-231 93.1 µM | SNB-19 > 100 µM | SK-MEL-2 > 100 µM | PC-3 75.5 µM | HL-60 > 100 µM | Malme-3M > 100 µM | SF-268 81.1 µM | K562 > 100 µM | Hs-578T > 100 µM | SN12C 88.5 µM

COc1cc(/C=C2\NC(=O)N(/C=C3\C(=O)Oc4ccccc4C3=O)C2=O)ccc1O
inactive: SW-620 > 100 µM | CAKI-1 59.8 µM | SF-539 63.1 µM | BT-549 43 µM | RPMI-8226 > 100 µM | LOX IMVI 49.5 µM | HOP-92 > 100 µM | SK-MEL-5 41 µM | ACHN > 100 µM | NCI/ADR-RES > 100 µM | MDA-MB-231 35.2 µM | SNB-19 37.5 µM | SK-MEL-2 > 100 µM | PC-3 64 µM | HL-60 20.7 µM | SF-268 57.1 µM | K562 > 100 µM | Hs-578T 33.6 µM | SN12C 54.3 µM

CCOC(=O)NC(Nc1ccc(C(=O)OCC)cc1)(C(F)(F)F)C(F)(F)F
inactive: SW-620 61.4 µM | SF-539 > 100 µM | BT-549 > 100 µM | RPMI-8226 > 100 µM | LOX IMVI 4.26 µM | HOP-92 > 100 µM | SK-MEL-5 65.2 µM | ACHN 42.7 µM | NCI/ADR-RES > 100 µM | MDA-MB-231 > 100 µM | SNB-19 96.8 µM | PC-3 45 µM | HL-60 > 100 µM | Malme-3M > 100 µM | SF-268 > 100 µM | K562 9.29 µM | Hs-578T > 100 µM | SN12C > 100 µM

CC1=NN(c2nc(N)nc(/C(C#N)=C/c3ccncc3)n2)C(C)(C)C1
inactive: SW-620 > 100 µM | CAKI-1 > 100 µM | SF-539 > 100 µM | BT-549 > 100 µM | RPMI-8226 > 100 µM | LOX IMVI > 100 µM | HOP-92 > 100 µM | SK-MEL-5 > 100 µM | ACHN > 100 µM | NCI/ADR-RES > 100 µM | MDA-MB-231 > 100 µM | SNB-19 > 100 µM | SK-MEL-2 > 100 µM | PC-3 > 100 µM | HL-60 52.1 µM | SF-268 > 100 µM | K562 13.5 µM | Hs-578T > 100 µM

Fc1cccc(F)c1C1SCC2=Nc3ccccc3CN21 (centres undefined)
inactive: SW-620 > 100 µM | CAKI-1 > 100 µM | SF-539 26.7 µM | BT-549 98.6 µM | RPMI-8226 56.1 µM | LOX IMVI > 100 µM | HOP-92 71.8 µM | SK-MEL-5 31.4 µM | ACHN 33.7 µM | NCI/ADR-RES 22.4 µM | MDA-MB-231 > 100 µM | SNB-19 44.1 µM | PC-3 30.8 µM | HL-60 44.2 µM | SF-268 > 10 µM | K562 92.3 µM | Hs-578T 25.4 µM | SN12C > 100 µM

N/C(COc1ccc(Cl)cc1)=N\NC(=O)c1ccncc1
inactive: SW-620 > 100 µM | CAKI-1 > 100 µM | SF-539 > 100 µM | BT-549 > 100 µM | RPMI-8226 39.4 µM | LOX IMVI 38.4 µM | HOP-92 58.9 µM | ACHN > 100 µM | NCI/ADR-RES 49.9 µM | MDA-MB-231 > 100 µM | SNB-19 > 100 µM | SK-MEL-2 > 100 µM | PC-3 > 100 µM | HL-60 > 100 µM | Malme-3M > 100 µM | SF-268 > 100 µM | K562 > 100 µM | Hs-578T > 100 µM | SN12C > 100 µM

CC1=NN(c2nc(N)nc(CCl)n2)C(C)(C)C1
inactive: SW-620 25.6 µM | CAKI-1 3.15 µM | SF-539 18.9 µM | BT-549 26.7 µM | RPMI-8226 25.6 µM | LOX IMVI 1.78 µM | HOP-92 17.9 µM | SK-MEL-5 19.8 µM | ACHN 10.3 µM | NCI/ADR-RES 14.4 µM | MDA-MB-231 29.3 µM | SNB-19 > 61.9 µM | SK-MEL-2 46.8 µM | PC-3 40.8 µM | HL-60 4.69 µM | SF-268 20.6 µM | K562 27.2 µM | Hs-578T 21 µM | SN12C 30.3 µM

COC(=O)c1ccc(OCc2ccc3nc(-c4ccccc4)c(Cl)nc3c2)cc1
inactive: SW-620 > 100 µM | CAKI-1 28.6 µM | SF-539 33.1 µM | BT-549 > 100 µM | RPMI-8226 > 100 µM | LOX IMVI > 100 µM | HOP-92 28.1 µM | SK-MEL-5 76.6 µM | ACHN 48.8 µM | NCI/ADR-RES 65.2 µM | MDA-MB-231 23.2 µM | SNB-19 92.5 µM | SK-MEL-2 84.7 µM | PC-3 > 100 µM | HL-60 40.6 µM | SF-268 42.9 µM | Hs-578T 30.1 µM | SN12C > 100 µM

CC(C)C/N=C(\N)N=C(N)N
inactive: SW-620 > 100 µM | SF-539 > 100 µM | BT-549 > 100 µM | RPMI-8226 > 100 µM | LOX IMVI > 100 µM | HOP-92 > 100 µM | SK-MEL-5 > 100 µM | ACHN > 100 µM | NCI/ADR-RES > 100 µM | MDA-MB-231 > 100 µM | SNB-19 > 100 µM | SK-MEL-2 > 100 µM | PC-3 > 100 µM | HL-60 > 100 µM | Malme-3M > 100 µM | SF-268 > 100 µM | K562 > 100 µM | Hs-578T > 100 µM | SN12C > 100 µM

C=CCc1c(O)c2ccccc2[nH]c1=O
inactive: SW-620 > 100 µM | CAKI-1 > 100 µM | SF-539 > 100 µM | BT-549 > 100 µM | RPMI-8226 > 100 µM | LOX IMVI > 100 µM | HOP-92 > 100 µM | SK-MEL-5 > 100 µM | ACHN > 100 µM | NCI/ADR-RES > 100 µM | MDA-MB-231 > 100 µM | SNB-19 > 100 µM | PC-3 > 100 µM | HL-60 > 100 µM | Malme-3M > 100 µM | K562 > 100 µM | Hs-578T > 100 µM | SN12C > 100 µM

CCOC(=O)c1c(CN2CCCC2)n(-c2ccccc2)c2cc(Br)c(O)cc12
inactive: SW-620 17.7 µM | CAKI-1 17.1 µM | BT-549 36.1 µM | RPMI-8226 16.2 µM | LOX IMVI 16 µM | HOP-92 20 µM | SK-MEL-5 13.4 µM | ACHN 17.8 µM | NCI/ADR-RES 22.4 µM | MDA-MB-231 17.8 µM | SNB-19 16.5 µM | SK-MEL-2 18.3 µM | PC-3 21.3 µM | HL-60 9.44 µM | Malme-3M 19.5 µM | SF-268 19.9 µM | K562 18.3 µM | Hs-578T 26.4 µM | SN12C 16.4 µM
